Test system: Calf thymus DNA
Experiment: Displacement of ethidium bromide from calf thymus DNA
Assay type: nucleic-acid assay
Conditions: Bos taurus

**Q.** For `CC1CCN(CCC(=O)Nc2ccccc2-c2nc3ccccc3[nH]2)CC1`, which logC50 is on record?
**A.** -2.83

**Q.** What about the logKA of the same compound?
**A.** 4.93

**Q.** Which logC50 does the source give for `O=C(CCN1CCOCC1)Nc1ccccc1-c1nc2ccccc2[nH]1` here?
**A.** -2.92

**Q.** What about the logKA of the same compound?
**A.** 5.02

**Q.** Which results are given for `c1ccc2c(c1)nc(CN1CCCCC1)n1c3ccccc3nc21`?
**A.** logC50: -3.84; logKA: 5.94

**Q.** With `CN1CCN(CCC(=O)Nc2ccccc2-c2nc3ccccc3[nH]2)CC1` as the compound, how does the logC50 read?
**A.** -2.86

**Q.** What about the logKA of the same compound?
**A.** 4.96

**Q.** With `c1ccc2c(c1)nc(CCN1CCOCC1)n1c3ccccc3nc21` as the compound, how does the logC50 read?
**A.** -4.12

**Q.** What about the logKA of the same compound?
**A.** 6.22

**Q.** `CCN(CC)CCOc1ccc2c(c1)C(=O)c1cc(OCCN(CC)CC)ccc1-2` was tested. Which logC50 did it give?
**A.** -4.2

**Q.** What about the logKA of the same compound?
**A.** 6.3

**Q.** `CN1CCN(CC(=O)Nc2ccccc2-c2nc3ccccc3[nH]2)CC1` was tested. Which logC50 did it give?
**A.** -2.32

**Q.** What about the logKA of the same compound?
**A.** 4.42

**Q.** What does the source list for `CC1CCN(CCc2nc3ccccc3c3nc4ccccc4n23)CC1`?
**A.** logC50: -4.23; logKA: 6.33

**Q.** With `c1ccc2c(c1)nc(CCN1CCCCC1)n1c3ccccc3nc21` as the compound, how does the logC50 read?
**A.** -4.03

**Q.** What about the logKA of the same compound?
**A.** 6.13

**Q.** With `CN1CCN(CCc2nc3ccccc3c3nc4ccccc4n23)CC1` as the compound, how does the logC50 read?
**A.** -4.18

**Q.** And the logKA?
**A.** 6.28

**Q.** With `CC1CCCCN1Cc1nc2ccccc2c2nc3ccccc3n12` (configuration not stated) as the compound, how does the logC50 read?
**A.** -3.65

**Q.** And the logKA?
**A.** 5.75

**Q.** `CC1CCCCN1CC(=O)Nc1ccccc1-c1nc2ccccc2[nH]1` (configuration not stated) was tested. Which logC50 did it give?
**A.** -2.66

**Q.** What about the logKA of the same compound?
**A.** 4.76

**Q.** For `O=C(CN1CCCCC1)Nc1ccccc1-c1nc2ccccc2[nH]1`, which logC50 is on record?
**A.** -2.65

**Q.** And the logKA?
**A.** 4.75

**Q.** Which results are given for `CC1CCCCN1CCc1nc2ccccc2c2nc3ccccc3n12` (configuration not stated)?
**A.** logC50: -4.17; logKA: 6.27

**Q.** For `O=C(CCN1CCCCC1)Nc1ccccc1-c1nc2ccccc2[nH]1`, which logC50 is on record?
**A.** -2.8

**Q.** And the logKA?
**A.** 4.9

**Q.** `CC1CCN(CC(=O)Nc2ccccc2-c2nc3ccccc3[nH]2)CC1` was tested. Which logC50 did it give?
**A.** -2.84

**Q.** And the logKA?
**A.** 4.94

**Q.** For `CC1CCCCN1CCC(=O)Nc1ccccc1-c1nc2ccccc2[nH]1` (configuration not stated), which logC50 is on record?
**A.** -2.66

**Q.** And the logKA?
**A.** 4.76

**Q.** How did the logC50 turn out when `O=C(CN1CCOCC1)Nc1ccccc1-c1nc2ccccc2[nH]1` was run?
**A.** -2.58

**Q.** What about the logKA of the same compound?
**A.** 4.68

**Q.** For `c1ccc2c(c1)nc(CN1CCOCC1)n1c3ccccc3nc21`, which logC50 is on record?
**A.** -3.44

**Q.** What about the logKA of the same compound?
**A.** 5.54

**Q.** With `CN1CCN(Cc2nc3ccccc3c3nc4ccccc4n23)CC1` as the compound, how does the logC50 read?
**A.** -3.72

**Q.** What about the logKA of the same compound?
**A.** 5.82

**Q.** Which results are given for `CC1CCN(Cc2nc3ccccc3c3nc4ccccc4n23)CC1`?
**A.** logC50: -3.83; logKA: 5.93
